# Data as given in ChEMBL document CHEMBL4392848, “Proline-based hydroxamates targeting the zinc-dependent deacetylase LpxC: Synthesis, antibacterial properties, and docking studies” (Bioorg Med Chem, 2019).
# Columns and labels:
# Proteus vulgaris = test: Antibacterial activity against Proteus vulgaris assessed as diameter of inhibition zone measured after 24 hrs by agar disc diffusion method; type: functional; note: test concentration or dose not given here
# Enterobacter cloacae = test: Antibacterial activity against Enterobacter cloacae assessed as diameter of inhibition zone measured after 24 hrs by agar disc diffusion method; type: functional; note: test concentration or dose not given here
# Klebsiella oxytoca = test: Antibacterial activity against Klebsiella oxytoca assessed as diameter of inhibition zone measured after 24 hrs by agar disc diffusion method; type: functional; note: test concentration or dose not given here
# Escherichia coli [1] = test: Antibacterial activity against Escherichia coli D22 measured after 20 hrs by microdilution method; type: functional; conditions: D22, 20 h
# Klebsiella aerogenes = test: Antibacterial activity against Enterobacter aerogenes assessed as diameter of inhibition zone measured after 24 hrs by agar disc diffusion method; type: functional; note: test concentration or dose not given here
# Escherichia coli [2] = test: Antibacterial activity against Escherichia coli D22 assessed as diameter of inhibition zone measured after overnight incubation by agar disc diffusion method; type: functional; note: test concentration or dose not given here
# [3] = biological target: Matrix metalloproteinase-9 (Homo sapiens, UniProt P14780); test: Inhibition of human MMP9 using (7-methoxycoumarin-4-yl)acetyl-Pro-Leu-Gly-Leu-(3-(2,4-dinitrophenyl)-L-2,3-diamino-propionyl)Ala-Arg-NH2 as substrate preincubated for 30 mins followed by substrate addition and measured by fluorescence assay
# Escherichia coli [4] = test: Antibacterial activity against Escherichia coli BL21(DE3) measured after 20 hrs by microdilution method; type: functional
# Klebsiella pneumoniae = test: Antibacterial activity against Klebsiella pneumoniae assessed as diameter of inhibition zone measured after 24 hrs by agar disc diffusion method; type: functional; note: test concentration or dose not given here
# Proteus mirabilis = test: Antibacterial activity against Proteus mirabilis assessed as diameter of inhibition zone measured after 24 hrs by agar disc diffusion method; type: functional; note: test concentration or dose not given here
# [5] = Inhibition of Escherichia coli LpxC C63A mutant using UDP-3-O-[(R)-3-hydroxymyristoyl]-N-acetylglucosamine as substrate measured after 30 mins by fluorescence based microplate assay
# Escherichia coli [6] = test: Antibacterial activity against Escherichia coli BL21(DE3) assessed as diameter of inhibition zone measured after overnight incubation by agar disc diffusion method; type: functional; note: test concentration or dose not given here
# Collagenase 3 = Collagenase 3 (Homo sapiens, UniProt P45452); test: Inhibition of human MMP13 using (7-methoxycoumarin-4-yl)acetyl-Pro-Leu-Gly-Leu-(3-(2,4-dinitrophenyl)-L-2,3-diamino-propionyl)Ala-Arg-NH2 as substrate preincubated for 30 mins followed by substrate addition and measured by fluorescence assay
# Citrobacter freundii = test: Antibacterial activity against Citrobacter freundii assessed as diameter of inhibition zone measured after 24 hrs by agar disc diffusion method; type: functional; note: test concentration or dose not given here
# Pseudomonas aeruginosa = test: Antibacterial activity against Pseudomonas aeruginosa assessed as diameter of inhibition zone measured after 24 hrs by agar disc diffusion method; type: functional; note: test concentration or dose not given here
# [7] = biological target: 72 kDa type IV collagenase (Homo sapiens, UniProt P08253); test: Inhibition of human MMP2 using (7-methoxycoumarin-4-yl)acetyl-Pro-Leu-Gly-Leu-(3-(2,4-dinitrophenyl)-L-2,3-diamino-propionyl)Ala-Arg-NH2 as substrate preincubated for 30 mins followed by substrate addition and measured by fluorescence assay
# Neutrophil collagenase = Neutrophil collagenase (Homo sapiens, UniProt P22894); test: Inhibition of human MMP8 using (7-methoxycoumarin-4-yl)acetyl-Pro-Leu-Gly-Leu-(3-(2,4-dinitrophenyl)-L-2,3-diamino-propionyl)Ala-Arg-NH2 as substrate preincubated for 30 mins followed by substrate addition and measured by fluorescence assay
# Neutrophil collagenase, sequence (P22894 whole entry): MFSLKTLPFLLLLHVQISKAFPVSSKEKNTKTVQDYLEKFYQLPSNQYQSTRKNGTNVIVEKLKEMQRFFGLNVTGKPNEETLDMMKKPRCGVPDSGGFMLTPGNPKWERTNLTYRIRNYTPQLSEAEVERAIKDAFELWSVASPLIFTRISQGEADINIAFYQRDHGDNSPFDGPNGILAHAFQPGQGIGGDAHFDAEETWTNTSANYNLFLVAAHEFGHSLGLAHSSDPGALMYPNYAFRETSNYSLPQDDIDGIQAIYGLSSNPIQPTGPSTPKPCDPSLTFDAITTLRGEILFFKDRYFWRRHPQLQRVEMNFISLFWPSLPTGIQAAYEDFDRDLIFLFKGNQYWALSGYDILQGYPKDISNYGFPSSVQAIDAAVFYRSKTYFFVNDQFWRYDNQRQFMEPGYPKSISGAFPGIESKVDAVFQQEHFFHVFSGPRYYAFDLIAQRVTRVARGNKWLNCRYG
# 72 kDa type IV collagenase, sequence (P08253 whole entry): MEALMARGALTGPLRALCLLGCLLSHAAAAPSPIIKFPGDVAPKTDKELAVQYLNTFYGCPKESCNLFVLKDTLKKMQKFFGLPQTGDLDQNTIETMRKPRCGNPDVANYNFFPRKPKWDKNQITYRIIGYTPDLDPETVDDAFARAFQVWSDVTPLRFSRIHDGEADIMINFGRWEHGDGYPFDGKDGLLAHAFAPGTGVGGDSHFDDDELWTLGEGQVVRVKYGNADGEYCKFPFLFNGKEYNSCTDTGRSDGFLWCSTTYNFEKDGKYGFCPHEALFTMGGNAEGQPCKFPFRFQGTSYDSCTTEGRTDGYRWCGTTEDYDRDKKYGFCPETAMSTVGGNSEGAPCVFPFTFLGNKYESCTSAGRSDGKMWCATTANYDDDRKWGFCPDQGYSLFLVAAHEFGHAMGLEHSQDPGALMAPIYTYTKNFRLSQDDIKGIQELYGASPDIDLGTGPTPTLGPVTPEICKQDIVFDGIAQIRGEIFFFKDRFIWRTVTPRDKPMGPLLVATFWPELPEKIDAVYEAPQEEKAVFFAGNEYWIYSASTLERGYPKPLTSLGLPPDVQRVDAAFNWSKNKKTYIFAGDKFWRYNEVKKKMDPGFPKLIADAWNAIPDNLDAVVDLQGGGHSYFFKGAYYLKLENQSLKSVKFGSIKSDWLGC
# Matrix metalloproteinase-9, sequence (P14780 whole entry): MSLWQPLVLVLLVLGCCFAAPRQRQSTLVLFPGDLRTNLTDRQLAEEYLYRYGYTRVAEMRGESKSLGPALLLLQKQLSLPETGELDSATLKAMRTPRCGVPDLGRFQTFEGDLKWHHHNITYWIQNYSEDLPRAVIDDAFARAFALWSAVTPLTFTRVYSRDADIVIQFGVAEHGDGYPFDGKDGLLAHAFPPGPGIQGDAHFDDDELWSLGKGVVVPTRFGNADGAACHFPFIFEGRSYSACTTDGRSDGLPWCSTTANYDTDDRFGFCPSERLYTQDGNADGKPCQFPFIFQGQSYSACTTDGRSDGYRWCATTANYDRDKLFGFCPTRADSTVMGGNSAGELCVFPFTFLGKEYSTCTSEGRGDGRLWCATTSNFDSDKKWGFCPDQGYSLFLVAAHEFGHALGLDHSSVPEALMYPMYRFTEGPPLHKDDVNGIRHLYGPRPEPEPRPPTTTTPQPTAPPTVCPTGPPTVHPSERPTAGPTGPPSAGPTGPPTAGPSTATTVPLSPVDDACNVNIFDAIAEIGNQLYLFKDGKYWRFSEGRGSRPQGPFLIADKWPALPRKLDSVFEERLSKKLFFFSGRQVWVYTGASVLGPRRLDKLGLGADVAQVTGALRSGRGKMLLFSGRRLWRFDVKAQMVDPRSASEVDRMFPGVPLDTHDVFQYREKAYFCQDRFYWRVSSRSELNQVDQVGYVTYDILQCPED
Compound,diameter of the inhibition zone (DIZ) (Proteus vulgaris) [mm],diameter of the inhibition zone (DIZ) (Enterobacter cloacae) [mm],diameter of the inhibition zone (DIZ) (Klebsiella oxytoca) [mm],MIC (Escherichia coli [1]) [µM],diameter of the inhibition zone (DIZ) (Klebsiella aerogenes) [mm],diameter of the inhibition zone (DIZ) (Escherichia coli [2]) [mm],IC50 [3] [µM],MIC (Escherichia coli [4]) [µM],diameter of the inhibition zone (DIZ) (Klebsiella pneumoniae) [mm],diameter of the inhibition zone (DIZ) (Proteus mirabilis) [mm],IC50 [5] [µM],Ki [5] [µM],diameter of the inhibition zone (DIZ) (Escherichia coli [6]) [mm],IC50 (Collagenase 3) [µM],diameter of the inhibition zone (DIZ) (Citrobacter freundii) [mm],diameter of the inhibition zone (DIZ) (Pseudomonas aeruginosa) [mm],IC50 [7] [µM],IC50 (Neutrophil collagenase) [µM]
O=C(NO)[C@H]1CCCN1C(=O)c1ccc(C#Cc2ccc(CN3CCOCC3)cc2)cc1,<6,9,8,8,9,24.7,0.731,> 256,11,9,63.4,8.7,11.3,0.636,12,<6,0.503,0.05
O=C(NO)[C@@H]1CCCN1C(=O)c1ccc(C#Cc2ccc(CN3CCOCC3)cc2)cc1,9,13,9,16,15,20,4,64,15,12,45.6,6.3,13.2,0.28,12,<6,0.57,2
O=C(NO)[C@@H]1CCCN1Cc1ccc(C#Cc2ccc(CN3CCOCC3)cc2)cc1,12,20,13,4,18,25,> 10,128,20,18,10.5,1.4,15,0.939,16,<6,3,5
CCCCCc1ccc(C#Cc2ccc(C(=O)N3C[C@H](O)C[C@H]3C(=O)NO)cc2)cc1,9,8,7,16,<6,8,0.845,> 256,<6,<6,5.9,0.81,<6,0.011,9,<6,0.151,0.282
O=C(NO)[C@@H]1C[C@H](O)CN1C(=O)c1ccc(C#Cc2ccc(CN3CCSCC3)cc2)cc1,9,14,11,8,18,21.3,–,128,15,10,32.8,4.5,13,–,14,<6,–,–
CN(C)c1ccc(C#Cc2ccc(C(=O)N3C[C@@H](O)C[C@H]3C(=O)NO)cc2)cc1,<6,8,8,32,9,13,–,256,9,8,16.7,2.3,<6,–,9,<6,–,–
